Test results reported in ChEMBL document CHEMBL1201862, “PubChem BioAssay data set” (2004).
The source made the active and inactive calls.

Tests used:
[1] = Luminescence-based counterscreen assay for KLF5 inhibitors: dose response cell-based high throughput screening assay to identify cytotoxic compounds using the IEC-6 intestinal epithelial cell line. [Related pubchem assays: 1700 (Primary screen.), 1834 (Confirmation screen.), 1858 (Summary AID.), 1905 (Counterscreen.)]; format: functional
[2] = A549 cell cytotoxicity, dose response, cytotoxicity control, plate reader, cherry-pick, antagonist series (AID 743412); format: functional, cell-based
[3] = toxicity toward HepG2 liver cells – cell-based, plate reader, cherry-pick, antagonist series, cytotoxicity control, dose response (AID 743416); format: functional
[4] = blockers of bursicon-stimulated LGR2 cAMP reporter – cell-based, HEK293, CRE-luciferase reporter, cherry pick, set 2, dose response (AID 743343); format: functional;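 note: transfected cells were stimulated with diluted bursicon conditioned medium after compound addition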
[5] = blockade of melanocortin 4 receptor signaling – cell-based, plate reader, cherry pick, counter-screen for LGR2 antagonist project, dose response (AID 743444); format: functional;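 note: transfected HEK 293 cells stimulated with alpha-MSH peptide; potency of inhibitors of the alpha-MSH evoked signal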
[6] = viability loss in HEK293 cells – cell-based, plate reader, cherry-picked samples, cytotoxicity control, dose response (AID 743446); format: functional
[7] = biological target: T1, Calpain-2 catalytic subunit (Sus scrofa, UniProt P43367); experiment: m-calpain protease blockers, concentration series – biochemical, fluorogenic peptide substrate, dose response (AID 1420); format: functional
T1 sequence (P43367 whole entry): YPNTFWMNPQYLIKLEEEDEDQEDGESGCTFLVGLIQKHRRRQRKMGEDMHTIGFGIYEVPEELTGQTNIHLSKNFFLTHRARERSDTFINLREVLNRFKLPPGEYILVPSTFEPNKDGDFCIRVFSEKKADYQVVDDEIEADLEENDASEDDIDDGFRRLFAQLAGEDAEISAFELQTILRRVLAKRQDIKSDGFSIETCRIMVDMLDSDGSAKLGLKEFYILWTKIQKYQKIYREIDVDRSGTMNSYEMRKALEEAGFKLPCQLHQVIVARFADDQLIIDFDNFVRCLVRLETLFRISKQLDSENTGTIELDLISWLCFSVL

Hexokinase HKDC1 = Hexokinase HKDC1 (Homo sapiens, UniProt Q2TB90); experiment: inhibition of HKDC1 glucose phosphorylation – biochemical, W721R variant, dose response (AID 504729); format: functional
[8] = biological target: T2, Alkaline phosphatase, tissue-nonspecific isozyme (Homo sapiens, UniProt P05186)
T2 sequence (P05186 whole entry): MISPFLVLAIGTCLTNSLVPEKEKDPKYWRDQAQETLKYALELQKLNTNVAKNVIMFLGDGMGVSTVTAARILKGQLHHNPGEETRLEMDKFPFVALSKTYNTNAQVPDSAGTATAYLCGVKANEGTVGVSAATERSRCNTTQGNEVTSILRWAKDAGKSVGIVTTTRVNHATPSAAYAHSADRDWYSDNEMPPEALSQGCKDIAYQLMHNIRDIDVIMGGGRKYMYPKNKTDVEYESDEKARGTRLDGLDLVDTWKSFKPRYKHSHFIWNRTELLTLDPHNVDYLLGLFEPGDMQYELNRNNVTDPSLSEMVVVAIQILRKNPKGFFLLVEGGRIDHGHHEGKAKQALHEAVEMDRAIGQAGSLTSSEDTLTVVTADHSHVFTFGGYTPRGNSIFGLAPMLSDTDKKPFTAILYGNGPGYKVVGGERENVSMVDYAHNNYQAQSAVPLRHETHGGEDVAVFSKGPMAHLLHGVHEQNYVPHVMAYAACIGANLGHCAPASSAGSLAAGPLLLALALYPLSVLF

[9] = biological target: T3, RNA-binding protein pos-1 (Caenorhabditis elegans, UniProt G5EF15); experiment: disruptors of C. elegans POS-1 RNA interaction – biochemical, fluorescence polarization, dose response (AID 1964);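 note: purified POS-1 fused to maltose binding protein made in E. coli; potency of compounds blocking POS-1 binding to fluorescent RNA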
T3 sequence (G5EF15 whole entry): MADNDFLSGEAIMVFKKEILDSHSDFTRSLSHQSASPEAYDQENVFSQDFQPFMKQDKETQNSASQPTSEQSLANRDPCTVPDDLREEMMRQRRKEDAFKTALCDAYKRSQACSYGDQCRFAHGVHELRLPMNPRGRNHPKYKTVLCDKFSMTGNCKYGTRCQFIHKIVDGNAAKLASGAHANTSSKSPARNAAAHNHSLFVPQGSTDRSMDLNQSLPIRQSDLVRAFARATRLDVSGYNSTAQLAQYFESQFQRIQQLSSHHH

[10] = biological target: Luciferin 4-monooxygenase (Photinus pyralis, UniProt P08659); experiment: Counter Screen for Luciferase-based Assay Positives. [Related pubchem assays: 620, 618, 411 ]
[11] = biological target: T4, Zinc finger protein mex-5 (Caenorhabditis elegans, UniProt Q9XUB2); experiment: potency of MEX-5 RNA-binding blockers – biochemical, C. elegans, fluorescence polarization, dose response (AID 1960)
T4 sequence (Q9XUB2 whole entry): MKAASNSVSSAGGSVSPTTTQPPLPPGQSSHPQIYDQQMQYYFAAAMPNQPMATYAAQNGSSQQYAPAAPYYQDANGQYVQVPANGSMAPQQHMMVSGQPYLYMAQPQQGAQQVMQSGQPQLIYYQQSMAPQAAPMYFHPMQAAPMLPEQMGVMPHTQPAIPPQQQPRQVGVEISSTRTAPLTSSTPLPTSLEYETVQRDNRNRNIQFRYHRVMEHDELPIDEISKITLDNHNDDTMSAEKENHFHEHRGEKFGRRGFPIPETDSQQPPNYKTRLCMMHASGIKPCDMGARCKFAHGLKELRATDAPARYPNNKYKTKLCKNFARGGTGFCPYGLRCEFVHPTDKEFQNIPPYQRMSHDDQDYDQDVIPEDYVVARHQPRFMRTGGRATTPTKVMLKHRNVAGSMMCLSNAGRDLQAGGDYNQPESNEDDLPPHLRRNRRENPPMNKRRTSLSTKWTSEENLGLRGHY

[12] = HPDE-C7 pancreatic duct cell viability loss – fluorescence, HTS (AID 430); format: functional, cell-based; settings: Homo sapiens
[13] = viability loss of HPDE-C7K cells – cell-based, fluorescence, HTS, primary screen (AID 431); format: functional; settings: Homo sapiens
HT-1080 = experiment: HT1080 cell viability loss – fluorescence readout (AID 620); format: functional, cell-based; settings: Homo sapiens

Sequence of Luciferin 4-monooxygenase (P08659 whole entry): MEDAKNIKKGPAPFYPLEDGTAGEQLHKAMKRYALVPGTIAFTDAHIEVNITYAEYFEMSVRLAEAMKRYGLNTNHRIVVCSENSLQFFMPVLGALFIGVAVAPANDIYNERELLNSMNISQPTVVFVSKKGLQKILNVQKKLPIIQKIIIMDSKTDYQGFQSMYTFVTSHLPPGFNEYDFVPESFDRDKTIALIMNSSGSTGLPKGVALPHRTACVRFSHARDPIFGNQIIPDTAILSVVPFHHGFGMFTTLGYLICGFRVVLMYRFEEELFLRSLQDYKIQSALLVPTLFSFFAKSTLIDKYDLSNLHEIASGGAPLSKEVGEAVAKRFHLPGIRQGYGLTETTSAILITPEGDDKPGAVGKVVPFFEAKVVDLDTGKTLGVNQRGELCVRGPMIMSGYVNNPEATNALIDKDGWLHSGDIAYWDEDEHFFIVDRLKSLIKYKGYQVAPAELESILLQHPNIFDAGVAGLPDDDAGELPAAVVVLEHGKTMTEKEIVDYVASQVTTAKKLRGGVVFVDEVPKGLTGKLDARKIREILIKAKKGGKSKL
Sequence of Hexokinase HKDC1 (Q2TB90 whole entry): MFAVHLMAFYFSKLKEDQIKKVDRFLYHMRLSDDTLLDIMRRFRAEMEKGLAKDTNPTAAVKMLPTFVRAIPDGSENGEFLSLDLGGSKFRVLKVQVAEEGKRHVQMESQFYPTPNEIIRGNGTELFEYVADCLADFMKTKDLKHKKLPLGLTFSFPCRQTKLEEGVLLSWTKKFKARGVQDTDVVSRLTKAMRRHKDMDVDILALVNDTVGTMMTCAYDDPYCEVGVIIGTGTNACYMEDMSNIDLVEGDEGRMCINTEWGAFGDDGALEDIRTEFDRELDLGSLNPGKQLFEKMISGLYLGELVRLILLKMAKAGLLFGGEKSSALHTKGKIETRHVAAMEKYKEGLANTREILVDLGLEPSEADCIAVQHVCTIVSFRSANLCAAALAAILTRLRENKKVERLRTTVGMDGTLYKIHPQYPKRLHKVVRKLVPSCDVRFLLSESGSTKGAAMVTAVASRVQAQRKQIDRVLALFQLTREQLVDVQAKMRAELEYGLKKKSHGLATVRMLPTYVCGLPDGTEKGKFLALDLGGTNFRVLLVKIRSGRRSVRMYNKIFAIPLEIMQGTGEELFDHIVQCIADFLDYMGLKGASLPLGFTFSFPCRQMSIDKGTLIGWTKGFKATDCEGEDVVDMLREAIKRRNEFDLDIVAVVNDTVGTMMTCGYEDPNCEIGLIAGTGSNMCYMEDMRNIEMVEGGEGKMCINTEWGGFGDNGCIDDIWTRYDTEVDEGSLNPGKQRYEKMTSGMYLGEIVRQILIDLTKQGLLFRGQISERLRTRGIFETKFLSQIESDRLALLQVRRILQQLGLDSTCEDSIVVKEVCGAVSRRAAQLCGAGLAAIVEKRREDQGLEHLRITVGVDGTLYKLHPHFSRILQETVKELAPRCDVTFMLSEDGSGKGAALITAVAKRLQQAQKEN

SMILES: CCc1ccc(C(=O)Nc2nc3ccccc3[nH]2)cc1
- IC50 [1]: 22.1 µM (not active)
- AC50 [2]: 31.8 µM (active)
- AC50 [3]: 29.3 µM (active)
- AC50 [4]: 1.27 µM (active)
- AC50 [5]: 1.45 µM (active)
- AC50 [6]: 28.4 µM (active)

SMILES: Cc1cc(C)n2nc(SCc3nnc(SCc4ccccc4Cl)s3)nc2n1
- IC50 [7]: 9.87 µM (not active)
- IC50 (Hexokinase HKDC1): 18.8 µM (active)

SMILES: Cn1nc(CC(=O)NC2CCCCCCCCCCC2)c2ccccc2c1=O
- EC50 [8]: 65 µM (not active)

SMILES: Cc1c(NC(=O)c2coc(=O)c(Br)c2)c(=O)n(-c2ccccc2)n1C
- EC50 [9]: 8.99 µM (active)
- EC50 [10]: 0.61 µM (active)
- EC50 [11]: 16.8 µM (active)
- EC50 [12]: 7.2 µM (active)
- EC50 [13]: 7.23 µM (active)
- EC50 (HT-1080): 15 µM (active)
